Like-named read-outs stand apart in the source and are kept apart here.
What was measured:
[1] = system: IL3000 T. congolense (drug sensitive) strain; test: In vitro Alamar Blue 72 h drug sensitivity assay for T. congolense; type: cell-based, Trypanosoma congolense; conditions: bloodstream form, 69 h + 3 h Resazurin, 34° C., read-out: IC50: I Org. Growth T. congolense 3 d
How it was run: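 Bloodstream-form trypanosomes in HMI medium with 20% bovine serum were exposed to compounds for 69 h at 34° C, 5% CO2, then resazurin for another 3 h. Fluorescence read at ex 536/em 588 nm; IC50 from 11-point sigmoidal dose-response curves, at least three independent runs.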

[2] = system: STIB719/ILRAD560 T. vivax (drug sensitive) strain; test: Ex vivo Alamar Blue 48 h drug sensitivity assay for T. vivax; type: cell-based; conditions: Trypanosoma vivax, ex vivo bloodstream form from mouse, 45 hrs + 3 hrs Resazurin, 37° C., read-out: IC50: I Hypoxanthine Incorporation T. vivax 2 d

In the case of `COC(=O)[C@H](CCc1ccccc1)NC(=O)c1ccc2c(c1)B(O)OC2` [Example 6-027, Methyl (S)-2-(1-hydroxy-1,3-dihydrobenzo[c][1,2]oxaborole-6-carboxamido)-4-phenylbutanoate], the IC50 ([1]; Trypanosoma congolense, 72 h) is reported as 0.01 to 5 µM and the IC50 [2] is reported as 0.05 to 2 µM.
Molecule `C[C@H](NC(=O)c1ccc2c(c1)B(O)OC2)C(=O)O[C@H](C)c1ccccc1` [Example 6-019, (R)-1-Phenylethyl (1-hydroxy-1,3-dihydrobenzo[c][1,2]oxaborole-6-carbonyl)-L-alaninate] has an IC50 ([1]; Trypanosoma congolense, 72 h) of 0.00051 to 0.00999 µM and an IC50 [2] of 0.05 to 2 µM.
With `COC(=O)[C@@H](NC(=O)c1ccc2c(c1C)B(O)OC2)[C@@H](C)OCc1ccccc1` [Example 6-078, Methyl O-benzyl-N-(1-hydroxy-7-methyl-1,3-dihydrobenzo[c][1,2]oxaborole-6-carbonyl)-L-threoninate] the IC50 ([1]; Trypanosoma congolense, 72 h) was 0.01 to 5 µM and the IC50 [2] was 0.00051 to 0.0499 µM.
`CC(C)C[C@H](NC(=O)c1ccc2c(c1)B(O)OC2)C(=O)OCc1ccccc1` [Example 6-006, Benzyl (1-hydroxy-1,3-dihydrobenzo[c][1,2]oxaborole-6-carbonyl)-L-leucinate] showed an IC50 ([1]; Trypanosoma congolense, 72 h) of 0.00051 to 0.00999 µM and an IC50 [2] of 0.00051 to 0.0499 µM.
`C[C@H](OC(=O)[C@H](Cc1ccccc1)NC(=O)c1ccc2c(c1)B(O)OC2)c1ccccc1` [Example 6-024, (S)-1-phenylethyl (1-hydroxy-1,3-dihydrobenzo[c][1,2]oxaborole-6-carbonyl)-L-phenylalaninate] showed an IC50 ([1]; Trypanosoma congolense, 72 h) of 0.00051 to 0.00999 µM and an IC50 [2] of 0.05 to 2 µM.
With `Cc1c(C(=O)N[C@H](C(=O)OCc2ccc3c(c2)C(=O)CS3(=O)=O)C(C)C)ccc2c1B(O)OC2` [Example 6-104, (1,1-Dioxido-3-oxo-2,3-dihydrobenzo[b]thiophen-5-yl)methyl (1-hydroxy-7-methyl-1,3-dihydrobenzo[c][1,2]oxaborole-6-carbonyl)-L-valinate] the IC50 ([1]; Trypanosoma congolense, 72 h) was 0.01 to 5 µM and the IC50 [2] was 0.00051 to 0.0499 µM.
`CC(C)c1c(C(=O)N[C@H](C(=O)OCc2ccc(S(C)(=O)=O)cc2)C(C)C)ccc2c1B(O)OC2` [Example 6-084, 4-(Methylsulfonyl)benzyl (1-hydroxy-7-isopropyl-1,3-dihydrobenzo[c][1,2]oxaborole-6-carbonyl)-L-valinate] was tested, and the IC50 ([1]; Trypanosoma congolense, 72 h) was 0.01 to 5 µM and the IC50 [2] was 0.00051 to 0.0499 µM.
`CC(C)[C@H](NC(=O)c1ccc2c(c1C(F)(F)F)B(O)OC2)C(=O)OCc1ccc(F)cc1` [Example 6-070, 4-Fluorobenzyl (1-hydroxy-7-(trifluoromethyl)-1,3-dihydrobenzo[c][1,2]oxaborole-6-carbonyl)-L-valinate] showed an IC50 ([1]; Trypanosoma congolense, 72 h) of 0.01 to 5 µM and an IC50 [2] of 0.05 to 2 µM.
With `CC(C)[C@H](NC(=O)c1ccc2c(c1)B(O)OC2(C)C)C(=O)OCc1ccccc1` [Example 6-032, Benzyl (1-hydroxy-3,3-dimethyl-1,3-dihydrobenzo[c][1,2]oxaborole-6-carbonyl)-L-valinate] the IC50 ([1]; Trypanosoma congolense, 72 h) was 0.01 to 5 µM and the IC50 [2] was > 2 µM.
`C[C@@H](OC(=O)[C@H](Cc1ccccc1)NC(=O)c1ccc2c(c1)B(O)OC2)c1ccccc1` [Example 6-021, (R)-1-phenylethyl (1-hydroxy-1,3-dihydrobenzo[c][1,2]oxaborole-6-carbonyl)-L-phenylalaninate] showed an IC50 ([1]; Trypanosoma congolense, 72 h) of 0.00051 to 0.00999 µM and an IC50 [2] of 0.00051 to 0.0499 µM.
In the case of `Cc1c(C(=O)N[C@H](C(=O)OCc2cccc(F)c2)C(C)C)ccc2c1B(O)OC2` [Example 6-042, 3-Fluorobenzyl (1-hydroxy-7-methyl-1,3-dihydrobenzo[c][1,2]oxaborole-6-carbonyl)-L-valinate], the IC50 ([1]; Trypanosoma congolense, 72 h) is reported as 0.00051 to 0.00999 µM and the IC50 [2] is reported as < 0.0005 µM.
`CC(C)[C@H](NC(=O)c1ccc2c(c1C1CC1)B(O)OC2)C(=O)OCc1ccc(F)cc1` [Example 6-057, 4-Fluorobenzyl (7-cyclopropyl-1-hydroxy-1,3-dihydrobenzo[c][1,2]oxaborole-6-carbonyl)-L-valinate] was tested, and the IC50 ([1]; Trypanosoma congolense, 72 h) was 0.00051 to 0.00999 µM and the IC50 [2] was < 0.0005 µM.
With `Cc1c(C(=O)N[C@H](C(=O)OCc2ccc(F)c(Cl)c2)C(C)C)ccc2c1B(O)OC2` [Example 6-051, 3-Chloro-4-fluorobenzyl (1-hydroxy-7-methyl-1,3-dihydrobenzo[c][1,2]oxaborole-6-carbonyl)-L-valinate] the IC50 ([1]; Trypanosoma congolense, 72 h) was < 0.0005 µM and the IC50 [2] was < 0.0005 µM.
Molecule `COC(=O)[C@@H](Cc1ccccc1)NC(=O)c1ccc2c(c1)B(O)OC2` [Example 6-018, Methyl (1-hydroxy-1,3-dihydrobenzo[c][1,2]oxaborole-6-carbonyl)-D-phenylalaninate] has an IC50 ([1]; Trypanosoma congolense, 72 h) of 0.01 to 5 µM and an IC50 [2] of 0.05 to 2 µM.
For `COC(=O)[C@H](Cc1ccccc1)NC(=O)c1ccc2c(c1)B(O)OC2` [Example 6-026, Methyl (1-hydroxy-1,3-dihydrobenzo[c][1,2]oxaborole-6-carbonyl)-L-phenylalaninate], the IC50 [1] was 0.00051 to 0.00999 µM and the IC50 [2] was 0.05 to 2 µM.
In the case of `Cc1c(C(=O)N[C@H](C(=O)OCc2cc(F)cc(F)c2)C(C)C)ccc2c1B(O)OC2` [Example 6-048, 3,5-Difluorobenzyl (1-hydroxy-7-methyl-1,3-dihydrobenzo[c][1,2]oxaborole-6-carbonyl)-L-valinate], the IC50 ([1]; Trypanosoma congolense, 72 h) is reported as < 0.0005 µM and the IC50 [2] is reported as < 0.0005 µM.
For `C[C@H](NC(=O)c1ccc2c(c1)B(O)OC2)C(=O)OCc1ccccc1` [Example 6-174, Benzyl (1-hydroxy-1,3-dihydrobenzo[c][1,2]oxaborole-6-carbonyl)-L-alaninate], the IC50 ([1]; Trypanosoma congolense, 72 h) was 0.00051 to 0.00999 µM and the IC50 [2] was 0.05 to 2 µM.
In the case of `CC(C)c1c(C(=O)N[C@H](C(=O)OCc2ccc(F)cc2)C(C)C)ccc2c1B(O)OC2` [Example 6-062, 4-Fluorobenzyl (1-hydroxy-7-isopropyl-1,3-dihydrobenzo[c][1,2]oxaborole-6-carbonyl)-L-valinate], the IC50 ([1]; Trypanosoma congolense, 72 h) is reported as 0.00051 to 0.00999 µM and the IC50 [2] is reported as < 0.0005 µM.
`CCCc1c(C(=O)N[C@H](C(=O)OCc2ccc(F)cc2)C(C)C)ccc2c1B(O)OC2` [Example 6-064, 4-fluorobenzyl (1-hydroxy-7-propyl-1,3-dihydrobenzo[c][1,2]oxaborole-6-carbonyl)-L-valinate] gave an IC50 ([1]; Trypanosoma congolense, 72 h) of 0.00051 to 0.00999 µM and an IC50 [2] of 0.00051 to 0.0499 µM.
`COC(=O)[C@H](C)NC(=O)c1ccc2c(c1)B(O)OC2` [Example 6-016, Methyl (1-hydroxy-1,3-dihydrobenzo[c][1,2]oxaborole-6-carbonyl)-L-alaninate] was tested, and the IC50 ([1]; Trypanosoma congolense, 72 h) was 0.01 to 5 µM and the IC50 [2] was > 2 µM.
With `COC(=O)[C@@H](CCc1ccccc1)NC(=O)c1ccc2c(c1)B(O)OC2` [Example 6-025, Methyl (R)-2-(1-hydroxy-1,3-dihydrobenzo[c][1,2]oxaborole-6-carboxamido)-4-phenylbutanoate] the IC50 ([1]; Trypanosoma congolense, 72 h) was 0.01 to 5 µM and the IC50 [2] was > 2 µM.

— US11578087B2, “Oxaborole esters and uses thereof” (priority 2016, dated 2023)
